Source: ChEMBL document CHEMBL1201862, “PubChem BioAssay data set” (2004)
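Assay format: 96-well plates, 48-hour exposure. GI50 = concentration required for 50% inhibition of growth.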 The source made the active and inactive calls. No stated cut-off is given here; in the data, active = GI50 up to about 1.1 µM and inactive = higher.

Columns and labels:
Assay in all cases: inhibition of tumour cell growth, NCI panel, 48 h
HL-60 = system: HL-60
OVCAR-8 = system: OVCAR-8
OVCAR-3 = system: OVCAR-3
HOP-92 = system: HOP-92
M14 = system: M14
K562 = system: K562
SF-295 = system: SF-295
HCT-15 = system: HCT-15
NCI-H460 = system: NCI-H460
IGROV-1 = system: IGROV-1
TK-10 = system: TK-10
SK-MEL-28 = system: SK-MEL-28
RXF 393 = system: RXF 393
SF-539 = system: SF-539
SK-MEL-5 = system: SK-MEL-5
NCI-H23 = system: NCI-H23
U-251 = system: U-251
SNB-75 = system: SNB-75
SW-620 = system: SW-620
SN12C = system: SN12C
NCI/ADR-RES = system: NCI/ADR-RES
CCRF-CEM = system: CCRF-CEM
DU-145 = system: DU-145
OVCAR-4 = system: OVCAR-4
A549 = system: A549
NCI-H226 = system: NCI-H226
HOP-62 = system: HOP-62
SNB-19 = system: SNB-19
COLO 205 = system: COLO 205
MDA-MB-435 = system: MDA-MB-435
HCT-116 = system: HCT-116
ACHN = system: ACHN
KM12 = system: KM12
A498 = system: A498
HT-29 = system: HT-29
MDA-MB-231 = system: MDA-MB-231
LOX IMVI = system: LOX IMVI
MCF7 = system: MCF7
UO-31 = system: UO-31
BT-549 = system: BT-549
MOLT-4 = system: MOLT-4
MDA-N = system: MDA-N
SK-MEL-2 = system: SK-MEL-2
CAKI-1 = system: CAKI-1
786-0 = system: 786-0
UACC-257 = system: UACC-257
OVCAR-5 = system: OVCAR-5
PC-3 = system: PC-3
SK-OV-3 = system: SK-OV-3
EKVX = system: EKVX
SF-268 = system: SF-268
NCI-H522 = system: NCI-H522
RPMI-8226 = system: RPMI-8226
UACC-62 = system: UACC-62
Hs-578T = system: Hs-578T
Malme-3M = system: Malme-3M
HCC 2998 = system: HCC 2998
SR = system: SR
T47D = system: T47D

SMILES: C(CCCCc1nnc(N2CCOCC2)o1)CCCc1nnc(N2CCOCC2)o1
- GI50 (HL-60): > 100 µM (inactive)
- GI50 (OVCAR-8): > 100 µM (inactive)
- GI50 (OVCAR-3): > 100 µM (inactive)
- GI50 (HOP-92): > 100 µM (inactive)
- GI50 (M14): > 100 µM (inactive)
- GI50 (K562): > 100 µM (inactive)
- GI50 (SF-295): > 100 µM (inactive)
- GI50 (HCT-15): > 100 µM
- GI50 (NCI-H460): > 100 µM (inactive)
- GI50 (IGROV-1): > 100 µM (inactive)
- GI50 (TK-10): > 100 µM (inactive)
- GI50 (SK-MEL-28): > 100 µM (inactive)
- GI50 (RXF 393): > 100 µM (inactive)
- GI50 (SF-539): > 100 µM (inactive)
- GI50 (SK-MEL-5): > 100 µM (inactive)
- GI50 (NCI-H23): > 100 µM (inactive)
- GI50 (U-251): > 100 µM (inactive)
- GI50 (SNB-75): > 100 µM (inactive)
- GI50 (SW-620): > 100 µM (inactive)
- GI50 (SN12C): > 100 µM (inactive)
- GI50 (NCI/ADR-RES): > 100 µM (inactive)
- GI50 (CCRF-CEM): > 100 µM (inactive)
- GI50 (DU-145): > 100 µM (inactive)
- GI50 (OVCAR-4): > 100 µM (inactive)
- GI50 (A549): > 100 µM (inactive)
- GI50 (NCI-H226): > 100 µM (inactive)
- GI50 (HOP-62): > 100 µM (inactive)
- GI50 (SNB-19): > 100 µM (inactive)
- GI50 (COLO 205): > 100 µM (inactive)
- GI50 (MDA-MB-435): > 100 µM (inactive)
- GI50 (HCT-116): > 100 µM (inactive)
- GI50 (ACHN): > 100 µM (inactive)
- GI50 (KM12): > 100 µM (inactive)
- GI50 (A498): > 100 µM (inactive)
- GI50 (HT-29): > 100 µM (inactive)
- GI50 (MDA-MB-231): > 100 µM (inactive)
- GI50 (LOX IMVI): > 100 µM (inactive)
- GI50 (MCF7): > 100 µM (inactive)
- GI50 (UO-31): > 100 µM (inactive)
- GI50 (BT-549): > 100 µM (inactive)
- GI50 (MOLT-4): > 100 µM (inactive)
- GI50 (MDA-N): > 100 µM (inactive)
- GI50 (SK-MEL-2): > 100 µM (inactive)
- GI50 (CAKI-1): > 100 µM (inactive)
- GI50 (786-0): > 100 µM (inactive)
- GI50 (UACC-257): > 100 µM (inactive)
- GI50 (OVCAR-5): > 100 µM (inactive)
- GI50 (PC-3): > 100 µM (inactive)
- GI50 (SK-OV-3): > 100 µM (inactive)
- GI50 (EKVX): > 100 µM (inactive)

SMILES: C[C@@H]1C(O)CC[C@H](C)C12CC=CC2=O (stereo partly drawn)
- GI50 (HL-60): > 100 µM (inactive)
- GI50 (OVCAR-3): > 100 µM (inactive)
- GI50 (HOP-92): > 100 µM (inactive)
- GI50 (K562): > 100 µM (inactive)
- GI50 (SF-295): > 100 µM (inactive)
- GI50 (HCT-15): > 100 µM
- GI50 (SF-268): > 100 µM (inactive)
- GI50 (NCI-H522): > 100 µM (inactive)
- GI50 (NCI-H460): > 100 µM (inactive)
- GI50 (IGROV-1): > 100 µM (inactive)
- GI50 (RPMI-8226): > 100 µM (inactive)
- GI50 (TK-10): > 100 µM (inactive)
- GI50 (UACC-62): > 100 µM (inactive)
- GI50 (SK-MEL-28): > 100 µM (inactive)
- GI50 (RXF 393): > 100 µM (inactive)
- GI50 (Hs-578T): > 100 µM (inactive)
- GI50 (SF-539): > 100 µM (inactive)
- GI50 (SK-MEL-5): > 100 µM (inactive)
- GI50 (NCI-H23): > 100 µM (inactive)
- GI50 (U-251): > 100 µM (inactive)
- GI50 (SW-620): > 100 µM (inactive)
- GI50 (SN12C): > 100 µM (inactive)
- GI50 (NCI/ADR-RES): > 100 µM (inactive)
- GI50 (Malme-3M): > 100 µM (inactive)
- GI50 (DU-145): > 100 µM (inactive)
- GI50 (OVCAR-4): > 100 µM (inactive)
- GI50 (A549): > 100 µM (inactive)
- GI50 (HCC 2998): > 100 µM (inactive)
- GI50 (NCI-H226): > 100 µM (inactive)
- GI50 (HOP-62): > 100 µM (inactive)
- GI50 (SNB-19): > 100 µM (inactive)
- GI50 (COLO 205): > 100 µM (inactive)
- GI50 (MDA-MB-435): > 100 µM (inactive)
- GI50 (HCT-116): > 100 µM (inactive)
- GI50 (ACHN): > 100 µM (inactive)
- GI50 (A498): > 100 µM (inactive)
- GI50 (HT-29): > 100 µM (inactive)
- GI50 (MDA-MB-231): > 100 µM (inactive)
- GI50 (LOX IMVI): > 100 µM (inactive)
- GI50 (MCF7): > 100 µM (inactive)
- GI50 (SR): > 100 µM (inactive)
- GI50 (UO-31): > 100 µM (inactive)
- GI50 (MOLT-4): > 100 µM (inactive)
- GI50 (MDA-N): > 100 µM (inactive)
- GI50 (SK-MEL-2): > 100 µM (inactive)
- GI50 (CAKI-1): > 100 µM (inactive)
- GI50 (786-0): > 100 µM (inactive)
- GI50 (T47D): > 100 µM (inactive)
- GI50 (UACC-257): > 100 µM (inactive)
- GI50 (OVCAR-5): > 100 µM (inactive)
- GI50 (PC-3): > 100 µM (inactive)
- GI50 (SK-OV-3): > 100 µM (inactive)
- GI50 (EKVX): > 100 µM (inactive)
